Our source for the IC50 values is ChEMBL document CHEMBL1139363, “Iron chelators of the dipyridylketone thiosemicarbazone class: precomplexation and transmetalation effects on anticancer activity” (J Med Chem, 2009).

Usually IC50 stands for the concentration needed to halve the response being measured.

The subject of the assay is HL-60. Description: Antiproliferative activity against human HL60 cells after 72 hrs by MTT assay. The note with it: HL-60, 72 h. It counts as functional, cell-based. Background: Tetrazolium dyes change colour on reduction, which living cells bring about.

`CN(C)C(=S)NN=C(c1ccccn1)c1ccccn1` registered an IC50 of 10 nM.
